The target of one assay is RET G810R (Homo sapiens (Human), UniProt P07949, G810R). The experiment in a line: HTRF kinase activity test, RET G810R. The note with it: for IC50: HTRF KinEASE-TK; for inhibitory activity on RET G810R compared with cabozantinib and selpercatinib (LOXO-292): comparison in words. In kind it is biochemical. (In general: In TR-FRET formats the signal depends on donor and acceptor labels being close together.)

The next assay relates to TT Cell. Briefly: TT cell activity test (CelltiterGlo, 72 h). It counts as cell-based, human. The note with it: for IC50: Homo sapiens, TT cell line, 72 h, CTG; for inhibitory activity on TT cells compared with cabozantinib: comparison in words. For orientation: Cellular ATP, detected with luciferase, serves as a proxy for viable cell number.
In assay [1] the test system is Ba/F3 cell KIF5B-RET-V804M fusion xenograft model. Briefly: Pharmacodynamic test on Ba/F3 cell KIF5B-RET-V804M fusion xenograft model. The note with it: 10 mg/kg; for Tumor growth inhibition rate: oral, twice a day, end of the control experiment (day 8 of the administration); for tumor volume compared with the selpercatinib group: p<0.05. It counts as in vivo, BALB/c nude mice.

A further assay deals with RET V804M (Homo sapiens (Human), UniProt P07949, V804M). Briefly: HTRF kinase activity test, RET V804M. It counts as biochemical. The note with it: for IC50: HTRF KinEASE-TK; for inhibitory activity on RET V804M compared with cabozantinib: comparison in words.
The target of the next assay is RET wt (Homo sapiens (Human), UniProt P07949). The experiment in a line: HTRF kinase activity test, RET wt. In kind it is biochemical. Particulars: for IC50: HTRF KinEASE-TK; for inhibitory activity on RET wt compared with cabozantinib: comparison in words.
Assay [2] relates to TT cell human medullary thyroid carcinoma xenograft model. Briefly: Pharmacodynamic test on TT cell human medullary thyroid carcinoma xenograft model. It counts as in vivo, mice. Particulars: 10 mg/kg, oral, twice a day, 28 consecutive days. The method, then: TT tumor cells were cultured in F12K medium containing inactivated 10% fetal bovine serum, 100 U/mL penicillin, 100 μg/mL streptomycin and 2 mM glutamine in an incubator at 37° C. and 5% CO2. The cells were cultured at a starting concentration of 1×10^6 cells/mL, and divided and transferred to flasks for sub-culture every 3 to 4 days when they were overgrown. The tumor cells in the logarithmic growth phase were used for tumor inoculation in vivo.
The TT tumor cells resuspended in serum-free F12K medium at a concentration of 1×10^7 cells+gel/100 μL were inoculated subcutaneously into the right flank of experimental animals. When the tumor grew to about 224 mm^3, the compounds were administered in groups, with 6 animals in each group.
The mice were orally administered with the test compound twice a day for 28 consecutive days.
Tumor volume: the long and short diameters of the tumor were measured using a vernier caliper. The volume was calculated by the formula: volume=0.5×long diameter×short diameter^2. Animals were required to have their body weight and tumor size measured twice a week during the administration.
Reaction of animals after the administration: the experimental animals were weighed while measuring the tumors. The relationship between the change in the animal weight and the time of administration was recorded. At the same time, the survival and health of the mice, such as animal activity, feeding and other general states during the administration were observed.
Relative tumor proliferation rate T/C (%)=TRTV/CRTV×100% (TRTV: treatment group RTV; CRTV: negative control group RTV), where the relative tumor volume (RTV) is calculated as: RTV=Vt/V0, where V0 is the tumor volume measured at the time of group administration (that is, day 1 of the administration), and Vt is the tumor volume at each measurement. Tumor growth inhibition rate TGI (%)=(1−T/C)×100%.

Setting [3] is: end of the experiment (day 14 of the administration).

Structures are written as SMILES.

What is called IC50 is the concentration needed to halve the response being measured.

Sequence of RET wt (P07949 29-1114): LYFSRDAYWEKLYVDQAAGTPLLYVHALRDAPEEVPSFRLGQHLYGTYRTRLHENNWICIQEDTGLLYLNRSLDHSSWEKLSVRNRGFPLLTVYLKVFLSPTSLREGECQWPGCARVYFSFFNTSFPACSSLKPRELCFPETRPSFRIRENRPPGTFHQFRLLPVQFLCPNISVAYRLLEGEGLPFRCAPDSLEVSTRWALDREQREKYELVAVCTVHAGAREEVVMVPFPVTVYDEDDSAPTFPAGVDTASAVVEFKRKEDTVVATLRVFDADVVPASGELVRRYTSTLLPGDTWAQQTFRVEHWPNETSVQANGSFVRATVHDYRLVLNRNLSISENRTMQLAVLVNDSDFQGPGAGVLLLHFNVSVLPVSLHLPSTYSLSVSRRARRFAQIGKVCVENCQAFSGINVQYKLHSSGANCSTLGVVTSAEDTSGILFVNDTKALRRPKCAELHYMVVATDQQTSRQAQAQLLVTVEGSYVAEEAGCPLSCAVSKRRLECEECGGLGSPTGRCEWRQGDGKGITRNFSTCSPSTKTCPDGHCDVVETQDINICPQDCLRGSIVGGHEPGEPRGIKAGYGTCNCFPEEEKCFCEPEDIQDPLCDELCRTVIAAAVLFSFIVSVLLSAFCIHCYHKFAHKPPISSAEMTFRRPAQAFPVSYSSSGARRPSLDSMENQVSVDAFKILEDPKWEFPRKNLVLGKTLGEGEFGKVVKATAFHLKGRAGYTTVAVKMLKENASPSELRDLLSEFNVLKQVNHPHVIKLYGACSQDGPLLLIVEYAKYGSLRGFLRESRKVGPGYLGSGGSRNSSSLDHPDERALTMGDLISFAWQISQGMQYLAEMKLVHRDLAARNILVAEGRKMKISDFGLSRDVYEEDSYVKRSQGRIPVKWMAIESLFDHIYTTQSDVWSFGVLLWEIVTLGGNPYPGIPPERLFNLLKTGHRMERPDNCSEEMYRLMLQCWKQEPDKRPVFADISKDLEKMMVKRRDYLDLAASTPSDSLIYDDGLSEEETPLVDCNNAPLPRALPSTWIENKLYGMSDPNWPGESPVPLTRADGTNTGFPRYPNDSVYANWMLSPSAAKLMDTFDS
Sequence of RET V804M (P07949 29-1114 V804M): as the sequence (P07949 29-1114) above, with V776M counted along it
Sequence of RET G810R (P07949 29-1114 G810R): as the sequence (P07949 29-1114) above, with G782R counted along it

Regarding `CCOc1cc(-c2ccc(N3CC4CC(C3)N4Cc3ccc(OC)nc3)nc2)c2c3cn[nH]c3nn2c1` [Compound 9, 6-ethoxy-4-(6-(6-((6-methoxypyridin-3-yl)methyl)-3,6-diazabicyclo[3.3.1]heptan-3-yl)pyridin-3-yl)-1H-pyrazolo[3′,4′:3,4]pyrazolo[1,5-a]pyridine], at RET G810R, the midpoint of inhibition, the IC50, lay at 1.9 nM; the “inhibitory activity on RET G810R compared with cabozantinib and selpercatinib (LOXO-292)” value was “significantly better than that of cabozantinib and selpercatinib (LOXO-292)”. In addition, in the assay on TT Cell, the IC50 was 5.5 nM and the “inhibitory activity on TT cells compared with cabozantinib” value is listed as “significantly better than that of cabozantinib”. Moreover, the “Tumor growth inhibition rate” value in assay [1] is reported as 94%. Besides, the “tumor volume compared with the selpercatinib group” value in assay [1] (day 8 of the administration) is reported as “significantly lower than that of the selpercatinib group”. The “tumor volume compared with the selpercatinib group” value in assay [1] (setting [3]) is “significantly lower than that of the selpercatinib group”. Also, at RET V804M, the IC50 was 0.1 nM and the “inhibitory activity on RET V804M compared with cabozantinib” value was “significantly better than that of cabozantinib”. In addition, on RET wt, the IC50 stood at 0.2 nM and the “inhibitory activity on RET wt compared with cabozantinib” value was “significantly better than that of cabozantinib”. The “Tumor growth inhibition rate TGI” value in assay [2] was determined as 88.5%.
As for `COc1ccc(CN2C3CC2CN(c2ccc(-c4cc(OCCF)cn5nc6[nH]ncc6c45)cn2)C3)cn1` [Compound 31, 6-(2-fluoroethoxy)-4-(6-(6-((6-methoxypyridin-3-yl)methyl)-3,6-diazabicyclo[3.3.1]heptan-3-yl)pyridin-3-yl)-1H-pyrazolo[3′,4′:3,4]pyrazolo[1,5-a]pyridine], at RET G810R, the IC50 was found to be 1 nM; the “inhibitory activity on RET G810R compared with cabozantinib and selpercatinib (LOXO-292)” value is “significantly better than that of cabozantinib and selpercatinib (LOXO-292)”. Moreover, in the assay on TT Cell, the IC50 came out at 12.7 nM and the “inhibitory activity on TT cells compared with cabozantinib” value is “significantly better than that of cabozantinib”. In addition, the “Tumor growth inhibition rate” value in assay [1] was 92%. Also, in assay [1] (day 8 of the administration), the “tumor volume compared with the selpercatinib group” value is “significantly lower than that of the selpercatinib group”. Further, the “tumor volume compared with the selpercatinib group” value in assay [1] (setting [3]) is “significantly lower than that of the selpercatinib group”. In addition, at RET V804M, half-maximal inhibition (IC50) was put at 0.1 nM and the “inhibitory activity on RET V804M compared with cabozantinib” value is “significantly better than that of cabozantinib”. Also, on RET wt, it took 0.1 nM to reach half-maximal inhibition (IC50) and the “inhibitory activity on RET wt compared with cabozantinib” value is recorded as “significantly better than that of cabozantinib”. The “Tumor growth inhibition rate TGI” value in assay [2] is 87.4%.
On to `COc1ccc(CN2C3CC2CN(c2ccc(-c4cc(OCC(F)F)cn5nc6[nH]ncc6c45)cn2)C3)cn1` [Compound 32, 6-(2,2-difluoroethoxy)-4-(6-(6-((6-methoxypyridin-3-yl)methyl)-3,6-diazabicyclo[3.3.1]heptan-3-yl)pyridin-3-yl)-1H-pyrazolo[3′,4′:3,4]pyrazolo[1,5-a]pyridine], for which, on RET G810R, inhibition was half-maximal at 2.3 nM (IC50); the “inhibitory activity on RET G810R compared with cabozantinib and selpercatinib (LOXO-292)” value was “significantly better than that of cabozantinib and selpercatinib (LOXO-292)”. In the assay on TT Cell, the IC50 came to 6.5 nM and the “inhibitory activity on TT cells compared with cabozantinib” value is reported as “significantly better than that of cabozantinib”. Moreover, the “Tumor growth inhibition rate” value in assay [1] is given as 96%. Besides, the “tumor volume compared with the selpercatinib group” value in assay [1] (day 8 of the administration) is “significantly lower than that of the selpercatinib group”. Further, the “tumor volume compared with the selpercatinib group” value in assay [1] (setting [3]) was “significantly lower than that of the selpercatinib group”. At RET V804M, the concentration for half-maximal inhibition (IC50) turned out to be 0.1 nM and the “inhibitory activity on RET V804M compared with cabozantinib” value is recorded as “significantly better than that of cabozantinib”. Further, at RET wt, half-maximal inhibition (IC50) was put at 0.1 nM and the “inhibitory activity on RET wt compared with cabozantinib” value is “significantly better than that of cabozantinib”. For the same compound, the “Tumor growth inhibition rate TGI” value in assay [2] amounted to 86.9%.

Source of the values: US12338253B2, “Nitrogen-containing polycyclic fused ring compound, pharmaceutical composition thereof, preparation method therefor and use thereof” (APPLIED PHARMACEUTICAL SCIENCE, INC., priority 2019, dated 2025).
